From patent publication US20180243273A1, “Composition for Intravesical Administration for Treating Bladder Pain” (priority 2017, published 2018)

Experiment: Storage of compositions with/without nitrogen-gassing and ascorbic acid, assay and impurities
Format: physicochemical
Settings: phosphate buffer
Method: A possible beneficial effect of nitrogen-gassing during manufacturing and storage was assessed. Selected compositions were manufactured by dissolution of API via stirring for 24 h and stored after treatment with/without nitrogen at 25° C. or 6° C. for up to 28 days.
The manufactured batches consisted of phosphate buffer and vitamin E TPGS and were compared to compositions containing ascorbic acid 1%, additionally. API was used at 0.01 wt.-%, 0.02 wt.-% or 0.04 w.-%. The compositions were saturated with API, where 10 mg, 20 mg or 40 mg were dissolved in 100 g buffer containing 0.5 wt.-%, wt.-1% or 2 wt.-% vitamin E TPGS, respectively. The compositions were transferred into polystyrene bottles and stored at 25° C. or 6° C. A part of the compositions was treated with nitrogen during manufacturing and gassed with nitrogen prior to sealing (see FIG. 18). The compositions were tested for assay and purity of API after manufacturing, as well as after 7, 14 and 28 days.

[1] = vitamin E TPGS 0.5%, Asc. 1%, N2 +, API 0.01%, 6° C., t = 7 d
[2] = vitamin E TPGS 0.5%, Asc. 1%, N2 +, API 0.01%, 6° C., t = 14 d
[3] = vitamin E TPGS 0.5%, Asc. 1%, N2 +, API 0.01%, 6° C., t = 28 d
[4] = vitamin E TPGS 0.5%, Asc. 1%, N2 +, API 0.01%, 25° C., t = 7 d
[5] = vitamin E TPGS 0.5%, Asc. 1%, N2 +, API 0.01%, 25° C., t = 14 d
[6] = vitamin E TPGS 0.5%, Asc. 1%, N2 +, API 0.01%, 25° C., t = 28 d
[7] = vitamin E TPGS 0.5%, Asc. 1%, N2 +, API 0.01%, t = 0
[8] = vitamin E TPGS 0.5%, Asc. 1%, N2 −, API 0.01%, 6° C., t = 7 d
[9] = vitamin E TPGS 0.5%, Asc. 1%, N2 −, API 0.01%, 6° C., t = 14 d
[10] = vitamin E TPGS 0.5%, Asc. 1%, N2 −, API 0.01%, 6° C., t = 28 d
[11] = vitamin E TPGS 0.5%, Asc. 1%, N2 −, API 0.01%, 25° C., t = 7 d
[12] = vitamin E TPGS 0.5%, Asc. 1%, N2 −, API 0.01%, 25° C., t = 14 d
[13] = vitamin E TPGS 0.5%, Asc. 1%, N2 −, API 0.01%, 25° C., t = 28 d
[14] = vitamin E TPGS 0.5%, Asc. 1%, N2 −, API 0.01%, t = 0
[15] = vitamin E TPGS 0.5%, no Asc., N2 +, API 0.01%, 6° C., t = 28 d
[16] = vitamin E TPGS 0.5%, no Asc., N2 +, API 0.01%, 25° C., t = 7 d
[17] = vitamin E TPGS 0.5%, no Asc., N2 +, API 0.01%, 25° C., t = 14 d
[18] = vitamin E TPGS 0.5%, no Asc., N2 +, API 0.01%, t = 0
[19] = vitamin E TPGS 0.5%, no Asc., N2 −, API 0.01%, 6° C., t = 7 d
[20] = vitamin E TPGS 0.5%, no Asc., N2 −, API 0.01%, 6° C., t = 14 d
[21] = vitamin E TPGS 0.5%, no Asc., N2 −, API 0.01%, 6° C., t = 28 d
[22] = vitamin E TPGS 0.5%, no Asc., N2 −, API 0.01%, 25° C., t = 7 d
[23] = vitamin E TPGS 0.5%, no Asc., N2 −, API 0.01%, 25° C., t = 14 d
[24] = vitamin E TPGS 0.5%, no Asc., N2 −, API 0.01%, 25° C., t = 28 d
[25] = vitamin E TPGS 0.5%, no Asc., N2 −, API 0.01%, t = 0
[26] = vitamin E TPGS 1%, Asc. 1%, N2 +, API 0.02%, 6° C., t = 7 d
[27] = vitamin E TPGS 1%, Asc. 1%, N2 +, API 0.02%, 6° C., t = 14 d
[28] = vitamin E TPGS 1%, Asc. 1%, N2 +, API 0.02%, 6° C., t = 28 d
[29] = vitamin E TPGS 1%, Asc. 1%, N2 +, API 0.02%, 25° C., t = 7 d
[30] = vitamin E TPGS 1%, Asc. 1%, N2 +, API 0.02%, 25° C., t = 14 d
[31] = vitamin E TPGS 1%, Asc. 1%, N2 +, API 0.02%, 25° C., t = 28 d
[32] = vitamin E TPGS 1%, Asc. 1%, N2 +, API 0.02%, t = 0
[33] = vitamin E TPGS 1%, no Asc., N2 +, API 0.02%, 6° C., t = 7 d
[34] = vitamin E TPGS 1%, no Asc., N2 +, API 0.02%, 6° C., t = 14 d
[35] = vitamin E TPGS 1%, no Asc., N2 +, API 0.02%, 6° C., t = 28 d
[36] = vitamin E TPGS 1%, no Asc., N2 +, API 0.02%, 25° C., t = 7 d
[37] = vitamin E TPGS 1%, no Asc., N2 +, API 0.02%, 25° C., t = 14 d

CN(C)[C@]1(c2cccc(F)c2)CC[C@]2(CC1)c1[nH]c3ccccc3c1CCN2C(=O)/C=C/c1ccccc1 [API, cis-(E)-4-(3-fluorophenyl)-2′,3′,4′,9′-tetrahydro-N,N-dimethyl-2′-(1-oxo-3-phenyl-2-propenyl)-spiro[cyclohexane-1,1′[1H]-pyrido[3,4-b]indol]-4-amine]
Assay [1]: 65.65 µg/mL | Impurities [1]: 0.65 % (a/a) | Assay [2]: 65.65 µg/mL | Impurities [2]: 29.21 % (a/a) | Assay [3]: 65.82 µg/mL | Impurities [3]: 0.70 % (a/a) | Assay [4]: 63.63 µg/mL | Impurities [4]: 1.00 % (a/a) | Assay [5]: 61.53 µg/mL | Impurities [5]: 1.74 % (a/a) | Assay [6]: 63.95 µg/mL | Impurities [6]: 1.82 % (a/a) | Assay [7]: 66.61 µg/mL | Impurities [7]: 0.58 % (a/a) | Assay [8]: 66.21 µg/mL | Impurities [8]: 0.70 % (a/a) | Assay [9]: 66.54 µg/mL | Impurities [9]: 0.83 % (a/a) | Assay [10]: 66.15 µg/mL | Impurities [10]: 0.70 % (a/a) | Assay [11]: 65.66 µg/mL | Impurities [11]: 0.53 % (a/a) | Assay [12]: 65.27 µg/mL | Impurities [12]: 1.09 % (a/a) | Assay [13]: 61.46 µg/mL | Impurities [13]: 1.36 % (a/a) | Assay [14]: 66.81 µg/mL | Impurities [14]: 0.66 % (a/a) | Assay [15]: 49.80 µg/mL | Impurities [15]: 0.54 % (a/a) | Assay [16]: 49.76 µg/mL | Impurities [16]: 0.36 % (a/a) | Assay [17]: 49.65 µg/mL | Impurities [17]: 1.19 % (a/a) | Assay [18]: 49.49 µg/mL | Impurities [18]: 0.71 % (a/a) | Assay [19]: 50.43 µg/mL | Impurities [19]: 0.63 % (a/a) | Assay [20]: 50.71 µg/mL | Impurities [20]: 0.94 % (a/a) | Assay [21]: 50.27 µg/mL | Impurities [21]: 0.52 % (a/a) | Assay [22]: 50.56 µg/mL | Impurities [22]: 0.45 % (a/a) | Assay [23]: 50.23 µg/mL | Impurities [23]: 1.13 % (a/a) | Assay [24]: 50.36 µg/mL | Impurities [24]: 1.06 % (a/a) | Assay [25]: 50.22 µg/mL | Impurities [25]: 0.68 % (a/a) | Assay [26]: 109.93 µg/mL | Impurities [26]: 0.73 % (a/a) | Assay [27]: 110.67 µg/mL | Impurities [27]: 0.90 % (a/a) | Assay [28]: 110.25 µg/mL | Impurities [28]: 0.91 % (a/a) | Assay [29]: 107.03 µg/mL | Impurities [29]: 1.04 % (a/a) | Assay [30]: 106.77 µg/mL | Impurities [30]: 1.27 % (a/a) | Assay [31]: 93.34 µg/mL | Impurities [31]: 1.79 % (a/a) | Assay [32]: 110.99 µg/mL | Impurities [32]: 0.62 % (a/a) | Assay [33]: 93.47 µg/mL | Impurities [33]: 0.64 % (a/a) | Assay [34]: 93.72 µg/mL | Impurities [34]: 0.75 % (a/a) | Assay [35]: 93.93 µg/mL | Impurities [35]: 0.58 % (a/a) | Assay [36]: 93.61 µg/mL | Impurities [36]: 0.69 % (a/a) | Assay [37]: 93.28 µg/mL | Impurities [37]: 0.86 % (a/a)
